Assay results reported in patent US7217730B2, “Method for the use of pyranoindole derivatives to treat infection with Hepatitis C virus” (Wyeth, priority 2002, dated 2007).

Biological target: T1, NS5B from the BK strain (genotype 1b) (Hepatitis C virus genotype 1b, UniProt P26663)
T1 construct: NS5B from the BK strain (genotype 1b) is expressed in E. coli as a protein in which the 21 C-terminal amino acids are replaced; made in house; host or cells: E. coli
Assay: Hepatitis C polymerase inhibition, NS5B BK strain, 33P-GTP filter assay
Type: biochemical
Conditions: Table 1A; for inhibition at 20 µM: read-out: HCV pol % inh at 20 μM; for IC50: NS5B BK strain, read-out: HCV pol BK IC50
Method in brief: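 Radiolabelled RNA synthesis was measured by filter capture and scintillation counting after EDTA stop. His-tagged, C-terminally truncated (Δ21) genotype 1b BK NS5B from E. coli, pre-exposed to compound for 15 min, copied a self-primed RNA template (~3 nM) with α-[33P]-GTP for 2 h at room temperature.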

T1 sequence (P26663 2420-2989): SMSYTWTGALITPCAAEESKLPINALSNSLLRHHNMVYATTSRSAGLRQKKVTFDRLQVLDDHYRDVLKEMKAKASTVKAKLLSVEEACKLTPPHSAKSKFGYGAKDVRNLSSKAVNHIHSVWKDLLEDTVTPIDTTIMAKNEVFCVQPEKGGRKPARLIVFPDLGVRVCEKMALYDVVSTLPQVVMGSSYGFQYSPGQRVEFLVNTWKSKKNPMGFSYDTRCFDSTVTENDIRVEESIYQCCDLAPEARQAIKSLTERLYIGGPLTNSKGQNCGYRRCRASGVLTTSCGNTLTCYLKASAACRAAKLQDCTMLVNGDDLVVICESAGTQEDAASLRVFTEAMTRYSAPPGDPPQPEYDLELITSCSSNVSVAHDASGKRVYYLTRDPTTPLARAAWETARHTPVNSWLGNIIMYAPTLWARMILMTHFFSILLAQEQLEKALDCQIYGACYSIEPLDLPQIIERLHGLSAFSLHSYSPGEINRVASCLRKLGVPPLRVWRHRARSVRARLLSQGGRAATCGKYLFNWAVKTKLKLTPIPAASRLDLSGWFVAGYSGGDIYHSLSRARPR

Molecule: COc1cc(C2(CC(=O)O)OCCc3c2[nH]c2cccc(Br)c32)cc(OC)c1OC (stereo not drawn) [Example 27, [5-bromo-1-(3,4,5-trimethoxyphenyl)-1,3,4,9-tetrahydropyrano[3,4-b]indol-1-yl]acetic acid]
- inhibition at 20 µM (20 μM compound): 3%
- IC50: > 20 µM

Molecule: (8-fluoro-5-iodo-6-methyl-1-propyl-1,3,4,9-tetrahydropyrano[3,4-b]indol-1-yl)acetic acid [Example 218]
- HCV pol % inh at 20 μM (20 μM compound): 92%
- IC50: 0.29 µM

Molecule: CC1(CC(=O)O)OCCc2c1[nH]c1cc(Cl)cc(Cl)c21 (stereo not drawn) [Example 114, (5,7-dichloro-1-methyl-1,3,4,9-tetrahydropyrano[3,4-b]indol-1-yl)acetic acid]
- inhibition at 20 µM (20 μM compound): 57%
- IC50: > 20 µM

Molecule: Cc1cc(Cl)c2[nH]c3c(c2c1C#N)CCOC3(C)CC(=O)O (stereo not drawn) [Example 181, (8-chloro-5-cyano-1,6-dimethyl-1,3,4,9-tetrahydropyrano[3,4-b]indol-1-yl)acetic acid]
- inhibition at 20 µM (20 μM compound): 14%
- IC50: > 5 µM

Molecule: O=C(O)CC1(c2ccoc2)OCCc2c1[nH]c1c(F)cc(F)c(Br)c21 (stereo not drawn) [Example 192, [5-bromo-6,8-difluoro-1-(3-furyl)-1,3,4,9-tetrahydropyrano[3,4-b]indol-1-yl]acetic acid]
- inhibition at 20 µM (20 μM compound): 74%
- IC50: > 5 µM

Molecule: CCCC1(CC(=O)O)OCCc2c1[nH]c1cccc(-c3ccccc3Cl)c21 (stereo not drawn) [Example 44, [5-(2-chlorophenyl)-1-propyl-1,3,4,9-tetrahydropyrano[3,4-b]indol-1-yl]acetic acid]
- inhibition at 20 µM (20 μM compound): 41%
- IC50: > 20 µM

Molecule: C/C=C/CCC1(CC(=O)O)OCCc2c1[nH]c1cccc(Br)c21 (stereo not drawn) [Example 24, {5-bromo-1-[(3E)-pent-3-enyl]-1,3,4,9-tetrahydropyrano[3,4-b]indol-1-yl}acetic acid]
- inhibition at 20 µM (20 μM compound): < 5%
- IC50: > 20 µM

Molecule: CCC1(CC(=O)O)OCCc2c1[nH]c1c(C)cc(F)c(C#N)c21 (stereo not drawn) [Example 206, (5-cyano-1-ethyl-6-fluoro-8-methyl-1,3,4,9-tetrahydropyrano[3,4-b]indol-1-yl)acetic acid]
- inhibition at 20 µM (20 μM compound): 84%
- IC50: 1.1 µM

Molecule: N#Cc1cccc2[nH]c3c(c12)CCOC3(CC(=O)O)c1ccc([N+](=O)[O-])cc1 (stereo not drawn) [Example 64, [5-cyano-1-(4-nitrophenyl)-1,3,4,9-tetrahydropyrano[3,4-b]indol-1-yl]acetic acid]
- inhibition at 20 µM (20 μM compound): 18%
- IC50: > 20 µM

Molecule: CC(C)C1(CC(=O)O)OCCc2c1[nH]c1cccc(Br)c21 (stereo not drawn) [Example 23, (5-bromo-1-isopropyl-1,3,4,9-tetrahydropyrano[3,4-b]indol-1-yl)acetic acid]
- inhibition at 20 µM (20 μM compound): 12%
- IC50: > 20 µM

Molecule: CCCCC1(CC(=O)O)OCCc2c1[nH]c1c(C)cc(F)c(C#N)c21 (stereo not drawn) [Example 208, (1-butyl-5-cyano-6-fluoro-8-methyl-1,3,4,9-tetrahydropyrano[3,4-b]indol-1-yl)acetic acid]
- inhibition at 20 µM (20 μM compound): 88%
- IC50: 0.23 µM

Molecule: COc1cc(C2(CC(=O)O)OCCc3c2[nH]c2cccc(C#N)c32)cc(OC)c1OC (stereo not drawn) [Example 63, [5-cyano-1-(3,4,5-trimethoxyphenyl)-1,3,4,9-tetrahydropyrano[3,4-b]indol-1-yl]acetic acid]
- inhibition at 20 µM (20 μM compound): 30%
- IC50: > 20 µM

Molecule: CCCC1(CC(=O)O)OCCc2c1[nH]c1c(F)cc(C)c(Br)c21 (stereo not drawn) [Example 165, (5-bromo-8-fluoro-6-methyl-1-propyl-1,3,4,9-tetrahydropyrano[3,4-b]indol-1-yl)acetic acid]
- inhibition at 20 µM (20 μM compound): 89%
- IC50: 0.6 µM

Molecule: O=C(O)CC1(CC(=O)O)OCCc2c1[nH]c1cccc(Cl)c21 [Example 71, [1-(carboxymethyl)-5-chloro-1,3,4,9-tetrahydropyrano[3,4-b]indol-1-yl]acetic acid]
- inhibition at 20 µM (20 μM compound): 45%
- IC50: > 5 µM

Molecule: CCCC1(CC(=O)O)OCCc2c1[nH]c1c(F)ccc(Cl)c21 (stereo not drawn) [Example 214, (5-chloro-8-fluoro-1-propyl-1,3,4,9-tetrahydropyrano[3,4-b]indol-1-yl)acetic acid]
- inhibition at 20 µM (20 μM compound): 82%
- IC50: 0.74 µM

Molecule: CCCC1(CC(=O)O)OCCc2c1[nH]c1c(F)ccc(-c3cccc(N)c3)c21 (stereo not drawn) [Example 151, [5-(3-aminophenyl)-8-fluoro-1-propyl-1,3,4,9-tetrahydropyrano[3,4-b]indol-1-yl]acetic acid]
- inhibition at 20 µM (20 μM compound): 34%
- IC50: > 20 µM

Molecule: O=C(O)CC1(c2ccccc2)OCCc2c1[nH]c1cccc(Cl)c21 (stereo not drawn) [Example 17, (5-chloro-1-phenyl-1,3,4,9-tetrahydropyrano[3,4-b]indol-1-yl)acetic acid]
- inhibition at 20 µM (20 μM compound): < 5%
- IC50: > 20 µM

Molecule: Cc1cc(F)c2[nH]c3c(c2c1C#N)CCOC3(C)CC(=O)O (stereo not drawn) [Example 219, (5-cyano-8-fluoro-1,6-dimethyl-1,3,4,9-tetrahydropyrano[3,4-b]indol-1-yl)acetic acid]
- inhibition at 20 µM (20 μM compound): 30%
- IC50: > 5 µM

Molecule: C/C=C/CCC1(CC(=O)O)OCCc2c1[nH]c1c(Cl)cc(Cl)cc21 (stereo not drawn) [Example 104, {6,8-dichloro-1-[(3E)-pent-3-enyl]-1,3,4,9-tetrahydropyrano[3,4-b]indol-1-yl}acetic acid]
- inhibition at 20 µM (20 μM compound): < 5%
- IC50: > 20 µM

Molecule: Cc1ccc(C)c2c3c([nH]c12)C(C)(CC(=O)O)OCC3 (stereo not drawn) [Example 137, (1,5,8-trimethyl-1,3,4,9-tetrahydropyrano[3,4-b]indol-1-yl)acetic acid]
- inhibition at 20 µM (20 μM compound): 5%
- IC50: > 20 µM

Molecule: N#Cc1cccc2[nH]c3c(c12)CCOC3(CC(=O)O)c1ccccc1 (stereo not drawn) [Example 62, (5-cyano-1-phenyl-1,3,4,9-tetrahydropyrano[3,4-b]indol-1-yl)acetic acid]
- inhibition at 20 µM (20 μM compound): 32%
- IC50: > 20 µM

Molecule: COc1cc(C2(CC(=O)O)OCCc3c2[nH]c2c(Cl)ccc(Cl)c32)cc(OC)c1OC (stereo not drawn) [Example 55, [5,8-dichloro-1-(3,4,5-trimethoxyphenyl)-1,3,4,9-tetrahydropyrano[3,4-b]indol-1-yl]acetic acid]
- inhibition at 20 µM (20 μM compound): < 5%
- IC50: > 20 µM

Molecule: CCCCC1(CC(=O)O)OCCc2c1[nH]c1c(Cl)cc(C)c(C#N)c21 (stereo not drawn) [Example 185, (1-butyl-8-chloro-5-cyano-6-methyl-1,3,4,9-tetrahydropyrano[3,4-b]indol-1-yl)acetic acid]
- inhibition at 20 µM (20 μM compound): 69%
- IC50: 4 µM

Molecule: CCCC1(CC(=O)O)OCCc2c1[nH]c1c(C)ccc(C)c21 (stereo not drawn) [Example 139, (5,8-dimethyl-1-propyl-1,3,4,9-tetrahydropyrano[3,4-b]indol-1-yl)acetic acid]
- inhibition at 20 µM (20 μM compound): 40%
- IC50: 8.3 µM

Molecule: O=C(O)CC1(c2ccccc2F)OCCc2c1[nH]c1cccc(Cl)c21 (stereo not drawn) [Example 20, [5-chloro-1-(2-fluorophenyl)-1,3,4,9-tetrahydropyrano[3,4-b]indol-1-yl]acetic acid]
- inhibition at 20 µM (20 μM compound): 21%
- IC50: > 20 µM

Molecule: CCCCC1(CC(=O)O)OCCc2c1[nH]c1c(C(F)(F)F)cccc21 (stereo not drawn) [Example 119, [1-butyl-8-(trifluoromethyl)-1,3,4,9-tetrahydropyrano[3,4-b]indol-1-yl]acetic acid]
- inhibition at 20 µM (20 μM compound): 31%
- IC50: > 20 µM

Molecule: O=C(O)CC1(c2cccc([N+](=O)[O-])c2)OCCc2c1[nH]c1cccc(Cl)c21 (stereo not drawn) [Example 19, [5-chloro-1-(3-nitrophenyl)-1,3,4,9-tetrahydropyrano[3,4-b]indol-1-yl]acetic acid]
- inhibition at 20 µM (20 μM compound): 6%
- IC50: > 20 µM
